# Assay results taken from US10844102B2, “Peptides, compositions, and methods for stimulating subcutaneous adipogenesis” (The Regents of the University of California, priority 2014, dated 2020).
# Assays:
# 3T3L cells = test: Adiponectin ELISA on supernatant medium of primed 3T3L cells; assay type: cell-based, mouse; details: 10 μg/ml peptide, versus no insulin control
# Description: 3T3L cells were cultured in T75 culture flasks, in expansion medium (Millipore Corporation), and stored in a 5% CO2 humidified incubator at 37° C. Media was changed every two days until the cells reached 80% confluency. Cells were subcultured in a 96 well plate with a seeding density of 3×10^4 cells per cm^2.
# Once cells had just reached confluency, expansion media was replaced with 0.5 mL of Adipogenic Induction Media per well containing 5% serum that had been screened for an ability to maintain stem cells in an undifferentiated state (LifeTechnologies). Cells were incubated for 48 hours at 37° C., 5% CO2. The Adipogenic Induction Media contained DMEM (low glucose, Gibco) +5% serum (LifeSciences) with 0.5 mM IBMX solution, 1 μM Dexamethasone Solution, and 100 μM Indomethacin Solution (priming stimulus). After 48 hr the Adipogenic Induction media was replaced with new media containing 10 μg/ml insulin alone (positive control), or 10 μg/ml peptide (experimental conditions). Negative controls were DMEM +5% serum only. Plates were incubated for two days prior to adiponectin ELISA analyses. Peptides were added daily at 10 μg/ml throughout the remainder of the experiment.
# Adiponectin present in the supernatant medium was measured using a mouse adiponectin ELISA (Novex, LifeTechnologies). Briefly, supernatant medium was collected and diluted 1:100. One hundred microliters of the diluted supernatant medium was added to each well of the ELISA plate and incubated for one hour at 37° C. Wells were washed three times with 1× wash buffer and then 100 μl of antibody was added to each well and incubated for one hour at 37° C. The wells were then washed and incubated with 100 μl detector antibody for 1 hr at 37° C. The wells were washed five times with wash buffer and 100 μl of substrate solution was added to each well and incubated for twenty minutes in the dark. The reaction was then stopped by the addition of 100 μl stop solution. Plates were read at 450 nm and concentrations of adiponectin were derived from a standard curve included in the ELISA plate.
# Insulin and the KSEVSK peptide (SEQ ID NO: 7) served as positive controls. […] In FIG. 7, values marked by asterisks represent significant changes relative to the no insulin control (i.e., the negative control) using a two-tailed Student's T test, p<0.05.
# [1] = system: mammary fat pads of aged female rats; test: In vivo adipogenesis in mammary fat pads of aged female rats (microCT); design: species or system rat; details: eight-month-old female rats, 100 μg peptide in 100 μl collagen gel, 7 days, versus collagen only
# Description: Peptides were also tested for their ability to stimulate adipogenesis in mammary fat pads of aged (8 month old) female rats in vivo. Mammary fat pads are rich in adipocyte progenitor cells.
# Eight-month-old female Sprague Dawley rats (retired breeders) were injected with 100 μl collagen gel (Vitrogen) containing 100 μg peptide into the fourth right mammary fat pad, as depicted in FIG. 10. […] The collagen and peptides were injected at the top of the ROI nearest the nipple. The collagen and peptide diffuse into the fat pad following injection and active peptides target RHAMM-positive progenitor cells present in the fat pad. Collagen alone was injected into the fourth left mammary fat pad as a negative control.
# Following injection of the collagen and peptide or collagen alone, animals were maintained on rat chow and water for 7 days and then euthanized. Micro-computed tomography (microCT) imaging of the […] was performed on animals using a Locus Ultra scanner (GE Healthcare, London, ON, Canada). The animals were imaged ex vivo with an X-ray tube voltage of 80 kV and a tube current of 55 mA. Nine hundred projections of data were acquired at an angular increment of 0.4 degrees around the rat in an exposure time of 16 ms. The data were then reconstructed into a 3D volume image with a voxel size of 154 μm. The subcutaneous mammary fat measured in 10×5×3 mm rectangular area (the region of interest (ROI)) below the nipple, avoiding measurement of underlying visceral fat (see the region labeled “fat pad” in FIG. 11). The amount of fat in the ROI was calculated as mass (mg) per ROI.
Substance,adipogenic activity in the adiponectin assay (adiponectin secretion) (3T3L cells),adipogenesis in vivo in mammary fat pads [1],adipogenic activity in the adiponectin assay (adiponectin secretion) (3T3L cells; listed as KTRASHHV),adipogenesis in vivo in mammary fat pads ([1]; listed as KTRASHHV)
KLKDENSQLR (listed as Erinaceus europaeus),not subsequently shown to be adipogenic,not subsequently shown to be adipogenic,–,–
KLKDENSQLK (listed as Homo sapiens),exhibited activity,exhibited activity,–,–
KTRAHHV (listed as Paenibacillus polymyxa),lack an ability to promote adipogenesis,induce adipogenesis in vivo,did not exhibit adipogenic activity,able to induce adipogenesis in vivo
KSEVSK (listed as Homo sapiens) [reference compound],–,mammary fat pad enlargement,–,–
